According to patent US10981866B2 (THE UNITED STATES OF AMERICA, AS REPRESENTED BY THE …, priority 2017, dated 2021):

Molecular target: bovine serum albumin (Bos taurus, UniProt P02769)
Test: binding kinetics of EB-TATE and bovine serum albumin
Settings: unlabeled EB-TATE

Sequence of bovine serum albumin (P02769 25-607): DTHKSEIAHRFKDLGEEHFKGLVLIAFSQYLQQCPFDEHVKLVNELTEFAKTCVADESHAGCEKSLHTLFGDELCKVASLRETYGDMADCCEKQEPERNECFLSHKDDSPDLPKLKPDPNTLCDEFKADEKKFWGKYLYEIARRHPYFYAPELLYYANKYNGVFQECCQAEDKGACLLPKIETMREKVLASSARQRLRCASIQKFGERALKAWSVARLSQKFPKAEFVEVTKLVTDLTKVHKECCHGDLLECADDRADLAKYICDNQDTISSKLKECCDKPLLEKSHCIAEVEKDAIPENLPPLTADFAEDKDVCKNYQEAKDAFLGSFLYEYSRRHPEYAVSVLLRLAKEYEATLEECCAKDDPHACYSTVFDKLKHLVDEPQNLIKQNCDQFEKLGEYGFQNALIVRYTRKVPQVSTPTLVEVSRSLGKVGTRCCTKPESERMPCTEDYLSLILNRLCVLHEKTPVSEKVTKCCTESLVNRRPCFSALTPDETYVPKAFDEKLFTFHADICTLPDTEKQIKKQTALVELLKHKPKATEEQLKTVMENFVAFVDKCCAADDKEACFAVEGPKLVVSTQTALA

Structure (SMILES): Cc1cc(-c2ccc(NC(=O)[C@@H](CCCCNC(=O)CCN3C(=O)CC(SCCC(=O)N[C@H](Cc4ccccc4)C(=O)N[C@H]4CSSCC(C(=O)NC(C(=O)O)[C@@H](C)O)NC(=O)[C@H]([C@@H](C)O)NC(=O)[C@H](CCCCN)NC(=O)[C@@H](Cc5c[nH]c6ccccc56)NC(=O)[C@H](Cc5ccccc5)NC4=O)C3=O)NC(=O)CN3CCN(CC(=O)O)CCN(CC(=O)O)CCN(CC(=O)O)CC3)c(C)c2)ccc1N=Nc1ccc2c(S(=O)(=O)O)cc(S(=O)(=O)O)c(N)c2c1O (some centres unmarked) [EB-TATE]
- Kd, affinity to bovine serum albumin: μM Kd affinity
- Kon and Koff, bovine serum albumin: high Kon and low Koff
